From ChEMBL document CHEMBL6109114, “Design, synthesis, and biological evaluation of 4-(2-fluorophenoxy)pyridine derivatives as novel FLT3-ITD inhibitors” (Eur J Med Chem, 2025)
Calls of active or inactive are those of the source. The calls are words filed in the database; no cut-off is given here.

Columns and labels:
[1] = Metabolic stability in Beagle dog liver microsomes assessed as half life at 1 uM measured up to 60 mins in presence of NADPH regenerating system by LC-MS/MS analysis; format: ADME, Canis lupus familiaris, Microsome
[2] = Metabolic stability in Sprague-Dawley rat liver microsomes assessed as parent compound remaining at 1 uM measured after 60 mins in presence of NADPH regenerating system by LC-MS/MS analysis; format: ADME, Microsome; conditions: read-out: Stability
[3] = AUC (0 to t) in mouse at 10 mg/kg, po; format: ADME, organism-based; conditions: in vivo
MOLM-13 [4] = test: Induction of apoptosis in human MOLM-13 cells assessed as viable cells at 0.1 uM incubated for 48 hrs by Annexin V-FITC/PI staining based flow cytometry analysis (reference value: 91.9%); format: functional; conditions: read-out: Activity
MOLM-13 [5] = test: Induction of cell cycle arrest in human MOLM-13 cells assessed as accumulation of cells at G2 phase at 1 uM incubated for 48 hrs (reference value: […]); format: functional
[6] = Metabolic stability in Sprague-Dawley rat liver microsomes assessed as half life at 1 uM measured up to 60 mins in presence of NADPH regenerating system by LC-MS/MS analysis; format: ADME, Microsome
[7] = target: CDK6/cyclin D3 (Homo sapiens) (UniProt P30281+Q00534); test: Inhibition of human CDK6/cyclinD3 assessed as remaining activity at 1 uM by Eurofins-DiscoverX assay relative to control; format: protein-complex assay
[8] = Cmax in mouse at 10 mg/kg, po; format: ADME, organism-based; conditions: in vivo
[9] = target: T1, Cyclin-dependent kinase 5/CDK5 activator 1 (Homo sapiens) (UniProt Q00535+Q15078); test: Inhibition of human CDK5/p25 at 1 uM by Eurofins-DiscoverX assay; format: protein-complex assay
[10] = target: T2, CDK3/Cyclin E (Homo sapiens) (UniProt P24864+Q00526); test: Inhibition of human CDK3/CyclinE at 1 uM by Eurofins-DiscoverX assay; format: protein-complex assay
Jurkat = test: Antiproliferative activity against non-FLT3 expressing human Jurkat cells assessed as inhibition of cell growth measured after 3 days by celltiter-glo luminescent cell viability assay; format: functional, cell-based; conditions: 72 h
[11] = target: CDK4/Cyclin D3 (Homo sapiens) (UniProt P11802+P30281); test: Inhibition of human CDK4/cyclinD3 assessed as remaining activity at 1 uM by Eurofins-DiscoverX assay relative to control; format: protein-complex assay
CYP2D6 = CYP2D6 (Homo sapiens, UniProt P10635); test: Inhibition of CYP2D6 in human liver microsomes using dextromethorphan as substrate at 10 uM incubated for 10 mins in presence of NADPH by LC-MS/MS analysis relative to control; format: ADME, Microsome; conditions: probe dextromethorphan
[12] = Antiproliferative activity against non-FLT3 expressing human TMD8 cells assessed as inhibition of cell growth measured after 3 days by celltiter-glo luminescent cell viability assay; format: functional, cell-based; conditions: TMD8, 72 h
[13] = target: Receptor-type tyrosine-protein kinase FLT3 (Homo sapiens) (UniProt P36888); test: Inhibition of FLT3 phosphorylation in human MOLM-13 cells at 0.2 uM measured after 2 hrs by Western blot analysis relative to control; format: cell-based
[14] = target: T1, Cyclin-dependent kinase 5/CDK5 activator 1 (Homo sapiens); test: Inhibition of human CDK5/p25 assessed as remaining activity at 1 uM by Eurofins-DiscoverX assay relative to control; format: protein-complex assay
[15] = Tmax in mouse at 5 mg/kg, iv; format: ADME, organism-based; conditions: in vivo
BaF3 [16] = test: Antiproliferative activity against mouse BaF3 cells harbouring TEL-KIT assessed as inhibition of cell growth measured after 3 days by celltiter-glo luminescent cell viability assay; format: functional, cell-based; conditions: BaF3, 72 h
MOLM-14 = test: Antiproliferative activity against human MOLM-14 cells harbouring FLT3-ITD assessed as inhibition of cell growth measured after 3 days by celltiter-glo luminescent cell viability assay; format: functional, cell-based; conditions: MOLM-14, 72 h
[17] = Metabolic stability in human liver microsomes assessed as parent compound remaining at 1 uM measured after 60 mins by LC-MS/MS analysis; format: ADME, Microsome; conditions: read-out: Stability
MOLM-13 [18] = test: Inhibition of STAT5 phosphorylation in human MOLM-13 cells measured after 2 hrs by Western blot analysis; format: cell-based; conditions: dose 0.01-1 µM
[19] = target: Vascular endothelial growth factor receptor 1 (Homo sapiens, UniProt P17948); test: Inhibition of FLT1 (unknown origin) using Fluorescein-Poly GT as substrate preincubated for 10 mins followed by substrate addition and measured after 30 mins in presence of ATP by mobility shift assay
CYP3A4 = CYP3A4 (Homo sapiens, UniProt P08684); test: Inhibition of CYP3A4 in human liver microsomes using midazolam as substrate at 10 uM incubated for 10 mins in presence of NADPH by LC-MS/MS analysis relative to control; format: ADME, Microsome; conditions: probe midazolam
MOLM-13 [20] = test: Induction of cell cycle arrest in human MOLM-13 cells assessed as accumulation of cells at G1 phase at 0.3 uM incubated for 48 hrs (reference value: 40.3%); format: functional
MOLM-13 [21] = test: Induction of apoptosis in human MOLM-13 cells assessed as viable cells at 0.3 uM incubated for 48 hrs by Annexin V-FITC/PI staining based flow cytometry analysis (reference value: 91.9%); format: functional; conditions: read-out: Activity
MOLM-13 [22] = test: Induction of apoptosis in human MOLM-13 cells assessed as late apoptotic cells at 0.1 uM incubated for 48 hrs by Annexin V-FITC/PI staining based flow cytometry analysis (reference value: 3.10%); format: functional
[23] = Volume of distribution in mouse at 5 mg/kg, iv; format: ADME, organism-based; conditions: in vivo
MOLM-13 [24] = test: Induction of apoptosis in human MOLM-13 cells assessed as necrotic cells at 0.1 uM incubated for 48 hrs by Annexin V-FITC/PI staining based flow cytometry analysis (reference value: 0.077%); format: functional
[25] = target: Mast/stem cell growth factor receptor Kit (Homo sapiens) (UniProt P10721); test: Inhibition of human c-Kit assessed as remaining activity at 1 uM by Eurofins-DiscoverX assay relative to control
[26] = target: Vascular endothelial growth factor receptor 2 (Homo sapiens, UniProt P35968); test: Inhibition of VEGFR2 (unknown origin) using Fluorescein-Poly GT as substrate preincubated for 10 mins followed by substrate addition and measured after 30 mins in presence of ATP by mobility shift assay
BaF3 [27] = test: Antiproliferative activity against mouse BaF3 cells harbouring FLT3-ITD-D835V mutant assessed as inhibition of cell growth measured after 3 days by celltiter-glo luminescent cell viability assay; format: functional, cell-based; conditions: BaF3, 72 h
MOLM-13 [28] = test: Induction of apoptosis in human MOLM-13 cells assessed as late apoptotic cells at 1 uM incubated for 48 hrs by Annexin V-FITC/PI staining based flow cytometry analysis (reference value: 3.10%); format: functional
[29] = Cmax in mouse at 5 mg/kg, iv; format: ADME, organism-based; conditions: in vivo
NCI-H441 = test: Antiproliferative activity against non-FLT3 expressing human NCI-H441 cells assessed as inhibition of cell growth measured after 3 days by celltiter-glo luminescent cell viability assay; format: functional, cell-based; conditions: NCI-H441, 72 h
[30] = target: T2, CDK3/Cyclin E (Homo sapiens); test: Inhibition of human CDK3/CyclinE assessed as remaining activity at 1 uM by Eurofins-DiscoverX assay relative to control; format: protein-complex assay
MOLM-13 [31] = test: Induction of cell cycle arrest in human MOLM-13 cells assessed as accumulation of cells at G1 phase at 1 uM incubated for 48 hrs (reference value: 40.3%); format: functional

T1 sequence (Q00535 whole entry): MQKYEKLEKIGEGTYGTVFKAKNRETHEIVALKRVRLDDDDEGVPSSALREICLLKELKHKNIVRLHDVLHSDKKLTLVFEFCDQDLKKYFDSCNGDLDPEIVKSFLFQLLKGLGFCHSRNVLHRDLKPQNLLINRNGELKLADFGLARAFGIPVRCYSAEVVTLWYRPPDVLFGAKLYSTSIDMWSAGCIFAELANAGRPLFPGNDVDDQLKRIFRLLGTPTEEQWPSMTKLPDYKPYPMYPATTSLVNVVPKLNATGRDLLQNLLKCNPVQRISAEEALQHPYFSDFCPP
T1 sequence (Q15078 99-307 partner limits assumed): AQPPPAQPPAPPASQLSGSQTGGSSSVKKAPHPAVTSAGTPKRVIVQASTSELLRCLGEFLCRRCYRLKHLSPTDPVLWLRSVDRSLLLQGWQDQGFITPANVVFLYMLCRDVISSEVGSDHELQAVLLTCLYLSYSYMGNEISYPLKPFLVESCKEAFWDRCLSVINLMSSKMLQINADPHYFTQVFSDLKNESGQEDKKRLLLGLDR
T2 sequence (P24864 whole entry, looked up): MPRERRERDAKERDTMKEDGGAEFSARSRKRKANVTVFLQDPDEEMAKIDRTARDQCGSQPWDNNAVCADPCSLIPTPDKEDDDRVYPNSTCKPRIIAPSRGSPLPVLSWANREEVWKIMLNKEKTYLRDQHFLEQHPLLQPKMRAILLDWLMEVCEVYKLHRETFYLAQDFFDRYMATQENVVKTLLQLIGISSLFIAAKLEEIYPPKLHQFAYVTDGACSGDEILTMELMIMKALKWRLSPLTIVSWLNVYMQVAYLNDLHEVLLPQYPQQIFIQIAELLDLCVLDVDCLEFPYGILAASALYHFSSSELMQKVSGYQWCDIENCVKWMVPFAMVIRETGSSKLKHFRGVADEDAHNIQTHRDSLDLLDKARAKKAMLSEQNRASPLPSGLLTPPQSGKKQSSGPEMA
T2 sequence (Q00526 whole entry, looked up): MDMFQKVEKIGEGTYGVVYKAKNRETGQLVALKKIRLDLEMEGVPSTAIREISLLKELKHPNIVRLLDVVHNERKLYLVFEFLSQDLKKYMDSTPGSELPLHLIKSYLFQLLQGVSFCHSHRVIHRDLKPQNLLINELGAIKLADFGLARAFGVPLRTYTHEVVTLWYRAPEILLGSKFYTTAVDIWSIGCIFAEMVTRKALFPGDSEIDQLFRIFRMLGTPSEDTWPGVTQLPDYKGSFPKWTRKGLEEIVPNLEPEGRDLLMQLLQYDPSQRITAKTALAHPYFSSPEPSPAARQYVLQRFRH
Chain of Receptor-type tyrosine-protein kinase FLT3 (Homo sapiens) (P36888 whole entry): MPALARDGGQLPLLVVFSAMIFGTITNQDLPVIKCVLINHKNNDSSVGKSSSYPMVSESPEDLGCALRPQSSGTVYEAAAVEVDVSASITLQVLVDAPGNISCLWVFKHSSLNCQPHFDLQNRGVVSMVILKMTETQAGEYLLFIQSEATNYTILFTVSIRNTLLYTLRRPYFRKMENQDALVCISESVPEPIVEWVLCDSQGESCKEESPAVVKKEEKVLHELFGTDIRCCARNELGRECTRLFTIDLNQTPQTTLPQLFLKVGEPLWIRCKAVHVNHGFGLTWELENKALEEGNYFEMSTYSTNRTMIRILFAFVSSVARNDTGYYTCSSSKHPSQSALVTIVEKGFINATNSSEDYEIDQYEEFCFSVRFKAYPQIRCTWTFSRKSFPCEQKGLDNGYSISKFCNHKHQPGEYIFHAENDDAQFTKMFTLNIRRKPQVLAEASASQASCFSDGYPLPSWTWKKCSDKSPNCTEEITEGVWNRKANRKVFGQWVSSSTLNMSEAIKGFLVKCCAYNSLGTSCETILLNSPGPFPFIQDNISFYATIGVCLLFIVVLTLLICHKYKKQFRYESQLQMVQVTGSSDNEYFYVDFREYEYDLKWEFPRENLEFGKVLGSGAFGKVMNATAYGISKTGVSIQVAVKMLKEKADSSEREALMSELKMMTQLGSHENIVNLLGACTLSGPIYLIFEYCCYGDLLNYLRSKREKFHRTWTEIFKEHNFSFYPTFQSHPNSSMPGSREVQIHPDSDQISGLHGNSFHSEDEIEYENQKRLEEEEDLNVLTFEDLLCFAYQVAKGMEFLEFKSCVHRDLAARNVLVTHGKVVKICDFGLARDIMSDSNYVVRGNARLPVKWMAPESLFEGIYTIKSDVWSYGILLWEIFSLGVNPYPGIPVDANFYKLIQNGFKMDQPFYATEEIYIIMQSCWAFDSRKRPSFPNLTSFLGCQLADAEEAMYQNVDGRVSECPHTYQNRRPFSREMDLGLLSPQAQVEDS
Chain of Vascular endothelial growth factor receptor 2 (P35968 whole entry): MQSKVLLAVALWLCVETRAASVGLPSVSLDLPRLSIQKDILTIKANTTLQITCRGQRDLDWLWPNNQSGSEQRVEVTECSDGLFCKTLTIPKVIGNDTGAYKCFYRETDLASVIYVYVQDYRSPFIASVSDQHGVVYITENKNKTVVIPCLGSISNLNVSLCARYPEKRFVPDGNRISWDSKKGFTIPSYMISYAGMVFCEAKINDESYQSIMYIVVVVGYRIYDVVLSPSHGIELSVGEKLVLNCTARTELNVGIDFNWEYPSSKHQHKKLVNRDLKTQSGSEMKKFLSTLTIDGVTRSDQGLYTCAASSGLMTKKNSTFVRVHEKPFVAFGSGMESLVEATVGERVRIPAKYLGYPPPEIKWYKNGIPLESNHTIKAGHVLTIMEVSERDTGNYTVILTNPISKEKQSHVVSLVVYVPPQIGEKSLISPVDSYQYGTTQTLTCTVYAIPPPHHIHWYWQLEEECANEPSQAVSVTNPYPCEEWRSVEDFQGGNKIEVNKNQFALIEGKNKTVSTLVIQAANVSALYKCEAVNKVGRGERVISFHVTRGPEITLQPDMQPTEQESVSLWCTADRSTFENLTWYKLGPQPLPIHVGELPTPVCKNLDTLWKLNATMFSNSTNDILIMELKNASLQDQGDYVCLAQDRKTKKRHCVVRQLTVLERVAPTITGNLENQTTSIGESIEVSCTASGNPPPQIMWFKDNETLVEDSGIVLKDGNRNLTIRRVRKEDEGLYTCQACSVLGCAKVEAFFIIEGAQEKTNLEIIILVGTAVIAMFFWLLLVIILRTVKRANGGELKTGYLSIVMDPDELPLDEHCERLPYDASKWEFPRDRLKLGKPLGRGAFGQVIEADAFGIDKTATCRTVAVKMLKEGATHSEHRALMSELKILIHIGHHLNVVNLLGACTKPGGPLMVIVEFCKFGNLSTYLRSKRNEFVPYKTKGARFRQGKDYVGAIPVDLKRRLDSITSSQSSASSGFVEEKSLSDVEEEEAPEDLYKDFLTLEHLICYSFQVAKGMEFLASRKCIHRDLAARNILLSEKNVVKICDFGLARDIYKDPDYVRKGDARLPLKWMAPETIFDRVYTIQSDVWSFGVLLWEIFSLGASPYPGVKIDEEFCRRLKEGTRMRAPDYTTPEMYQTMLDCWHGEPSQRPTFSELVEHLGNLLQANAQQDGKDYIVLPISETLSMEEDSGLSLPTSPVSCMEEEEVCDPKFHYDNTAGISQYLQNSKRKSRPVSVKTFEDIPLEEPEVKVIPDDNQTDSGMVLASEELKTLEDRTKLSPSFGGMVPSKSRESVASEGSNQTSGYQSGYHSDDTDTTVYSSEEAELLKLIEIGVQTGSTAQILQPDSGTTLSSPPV
Chain of CYP2D6 (P10635 whole entry): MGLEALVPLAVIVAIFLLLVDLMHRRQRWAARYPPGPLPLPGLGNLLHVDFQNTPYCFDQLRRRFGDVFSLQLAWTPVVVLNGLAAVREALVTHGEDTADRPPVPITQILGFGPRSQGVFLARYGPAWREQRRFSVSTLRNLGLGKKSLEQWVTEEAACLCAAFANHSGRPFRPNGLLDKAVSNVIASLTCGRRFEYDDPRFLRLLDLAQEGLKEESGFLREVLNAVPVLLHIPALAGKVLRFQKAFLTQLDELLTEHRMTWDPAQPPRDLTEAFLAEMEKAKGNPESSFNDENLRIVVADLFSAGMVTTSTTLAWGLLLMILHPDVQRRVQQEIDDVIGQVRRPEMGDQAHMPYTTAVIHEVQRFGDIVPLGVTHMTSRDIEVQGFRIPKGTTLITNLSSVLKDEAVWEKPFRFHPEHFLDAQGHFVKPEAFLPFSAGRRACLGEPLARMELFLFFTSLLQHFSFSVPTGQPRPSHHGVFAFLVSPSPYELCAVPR
Chain of Mast/stem cell growth factor receptor Kit (Homo sapiens) (P10721 whole entry): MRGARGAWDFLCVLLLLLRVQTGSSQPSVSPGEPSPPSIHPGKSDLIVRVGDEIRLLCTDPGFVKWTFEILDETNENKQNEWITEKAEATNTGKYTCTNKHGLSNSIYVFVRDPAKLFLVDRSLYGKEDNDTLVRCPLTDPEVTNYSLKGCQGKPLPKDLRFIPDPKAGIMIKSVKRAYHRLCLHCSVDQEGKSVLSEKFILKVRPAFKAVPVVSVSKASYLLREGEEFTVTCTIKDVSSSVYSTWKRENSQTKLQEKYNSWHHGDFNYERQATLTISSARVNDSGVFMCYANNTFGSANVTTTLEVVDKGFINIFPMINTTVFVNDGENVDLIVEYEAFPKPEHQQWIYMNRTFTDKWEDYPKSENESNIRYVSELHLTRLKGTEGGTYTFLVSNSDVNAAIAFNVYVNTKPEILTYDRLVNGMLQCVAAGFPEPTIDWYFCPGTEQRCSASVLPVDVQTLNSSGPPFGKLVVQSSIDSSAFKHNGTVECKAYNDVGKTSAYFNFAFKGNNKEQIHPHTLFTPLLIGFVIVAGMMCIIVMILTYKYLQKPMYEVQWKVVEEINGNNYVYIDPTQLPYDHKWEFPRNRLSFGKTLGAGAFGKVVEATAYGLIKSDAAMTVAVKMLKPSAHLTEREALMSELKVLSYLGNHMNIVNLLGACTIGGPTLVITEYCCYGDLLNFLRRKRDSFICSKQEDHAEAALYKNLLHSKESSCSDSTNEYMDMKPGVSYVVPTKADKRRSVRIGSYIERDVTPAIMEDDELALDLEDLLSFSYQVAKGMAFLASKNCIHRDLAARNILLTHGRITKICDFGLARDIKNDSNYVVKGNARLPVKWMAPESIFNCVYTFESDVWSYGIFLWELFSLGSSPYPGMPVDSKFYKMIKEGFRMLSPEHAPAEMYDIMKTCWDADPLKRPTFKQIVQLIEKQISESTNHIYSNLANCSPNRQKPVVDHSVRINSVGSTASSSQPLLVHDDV

half-life at 1 µM [1]: 2.1 h | remaining at 1 h, 1 µM [2]: 69.2% | AUC(0-t) [3]: 1400 ng·h/mL | half-life at 1 µM [6]: 1.95 h | Activity [7]: 88% | Cmax [8]: 306 ng/mL | inhibition [9]: inactive | inhibition [10]: inactive | IC50 (Jurkat): > 30 µM | Activity [11]: 88% | inhibition at 10 min, 10 µM (CYP2D6): 19.8% | inhibition [13]: 100% | Activity [14]: 88% | Tmax [15]: 0.25 h | IC50 (BaF3 [16]): > 10 µM | IC50 (MOLM-14): 0.51 µM | remaining at 1 h, 1 µM [17]: 99.6% | IC50 [19]: 0.348 µM | inhibition at 10 min, 10 µM (CYP3A4): 34.2% | Vd [23]: 20.9 L/kg | Activity [25]: 88% | IC50 [26]: 0.131 µM | IC50 (BaF3 [27]): 7.8 µM | Cmax [29]: 443 ng/mL | IC50 (NCI-H441): > 30 µM | Activity [30]: 88%
Structure (SMILES): Cc1cc(=O)n(-c2cc(Cl)ccc2F)nc1C(=O)Nc1ccc(Oc2ccnc(NC(=O)N3CC(O)C3)c2)c(F)c1
viability at 0.1 µM (MOLM-13 [4]): 90.6% | Activity (MOLM-13 [5]): 0% | IC50 [12]: 22.3 µM | inhibition (MOLM-13 [18]): Dose-dependent-effect | Activity (MOLM-13 [20]): 75.8% | viability at 0.3 µM (MOLM-13 [21]): 74.2% | Activity (MOLM-13 [22]): 3.37% | Activity (MOLM-13 [24]): 0.062% | Activity (MOLM-13 [28]): 36.2% | Activity (MOLM-13 [31]): 78.2%
